Results taken from PubChem BioAssay (NCI).
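Step 1: Grow cells in 96-well plates. Step 2: Expose to compound for 48 hours at 5 concentrations. Step 3: Interpolate endpoints linearly; if unreached, use highest concentration. At the GI50, growth is halved. The concentration for full growth arrest is given as TGI.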

Experiments:
Test in all cases: NCI tumour cell line growth inhibition, 48 h
[1] = tested on: A498 renal
[2] = tested on: A549 NSCLC
[3] = tested on: COLO 205 colon
[4] = tested on: HOP-62 NSCLC
[5] = tested on: LOX IMVI melanoma
[6] = tested on: MOLT-4 leukemia
[7] = tested on: NCI/ADR-RES ovarian
[8] = tested on: OVCAR-5 ovarian
[9] = tested on: SK-MEL-2 melanoma
[10] = tested on: UACC-257 melanoma

| SMILES | GI50 [1] | TGI [1] | GI50 [2] | TGI [2] | GI50 [3] | TGI [3] | GI50 [4] | TGI [4] | GI50 [5] | TGI [5] | GI50 [6] | TGI [6] | GI50 [7] | GI50 [8] | TGI [8] | GI50 [9] | TGI [9] | GI50 [10] | TGI [10] | TGI [7] |
| --- | --- | --- | --- | --- | --- | --- | --- | --- | --- | --- | --- | --- | --- | --- | --- | --- | --- | --- | --- | --- |
| COc1cc(C2CC(c3ccc4c(c3)OCO4)=NN2C(C)=O)cc(OC)c1OC (stereo not given) | 0.296 µM | 4.75 µM | 2.42 µM | > 100 µM | 0.466 µM | 2.6 µM | 1.14 µM | > 100 µM | 1.89 µM | > 100 µM | 1.05 µM | > 50.5 µM | 0.405 µM | 4.28 µM | > 100 µM | > 100 µM | > 100 µM | > 35.2 µM | > 100 µM | – |
| CCN(CC)CCCCCOc1cc(O)c2c(=O)cc(-c3ccccc3)oc2c1 | 2.46 µM | 9.48 µM | 5.26 µM | 18.5 µM | 2.13 µM | 5.02 µM | 2.43 µM | 9.71 µM | 1.57 µM | 2.96 µM | 3.76 µM | 11.2 µM | 3.06 µM | 2.37 µM | 6.97 µM | 3.23 µM | 11.4 µM | 1.81 µM | 3.55 µM | 11.6 µM |
| Cc1ccccc1-n1c(/C=C\c2ccccn2)nc2ccccc2c1=O | 9.47 µM | 70.6 µM | 26 µM | > 100 µM | 9.65 µM | 28.5 µM | 47.4 µM | > 100 µM | 15 µM | 37 µM | 6.16 µM | 27.7 µM | 7.16 µM | 19.5 µM | > 100 µM | 14.4 µM | 38.5 µM | 31 µM | > 100 µM | 79.5 µM |
| C=CC[Se]C(=O)Cc1c(C)n(C(=O)c2ccc(Cl)cc2)c2ccc(OC)cc12 | 1.52 µM | 4.25 µM | 1.62 µM | 6.18 µM | 2.14 µM | 4.38 µM | 0.435 µM | 2.93 µM | 1.74 µM | 3.34 µM | 2.87 µM | 8.72 µM | 1.94 µM | 1.72 µM | 3.21 µM | 1.94 µM | 4.14 µM | 2.02 µM | 4.64 µM | 3.89 µM |
| COc1ccccc1CNC(=O)C1c2ccccc2C(=O)N(CC(C)C)C1c1cccs1 (stereo not given) | 11.9 µM | 51.5 µM | – | – | 18.2 µM | 39.1 µM | 40.7 µM | > 100 µM | 27.8 µM | 89.1 µM | 14.5 µM | 73.9 µM | 20.6 µM | 34.6 µM | > 100 µM | 16.6 µM | 36.9 µM | – | – | > 100 µM |
| CCCC[P+](c1ccccc1)(c1ccccc1)c1ccccc1 | 3.46 µM | 29.5 µM | 4.4 µM | > 100 µM | 1.24 µM | 7.15 µM | 2.55 µM | > 100 µM | 3.01 µM | > 100 µM | 5.72 µM | > 100 µM | > 100 µM | 12.5 µM | > 100 µM | 3.42 µM | 19.6 µM | 0.61 µM | 7.6 µM | > 100 µM |
| C#CCOc1ccc2ncnc(Nc3ccc(NC(=O)CCl)cc3)c2c1 | 10.6 µM | 24 µM | 13.4 µM | 39.7 µM | 13.8 µM | 31.5 µM | 13.8 µM | 37.1 µM | 1.5 µM | 3.43 µM | 3.19 µM | 17.7 µM | 3.76 µM | 16.8 µM | 44.7 µM | 12.6 µM | 57.3 µM | 15.5 µM | 38.4 µM | 36.4 µM |
| O=C(NCCCNC(=O)OCc1ccc2c(Br)cc(Br)c(O)c2n1)OCc1ccc2c(Br)cc(Br)c(O)c2n1 | > 100 µM | > 100 µM | > 100 µM | > 100 µM | > 100 µM | > 100 µM | > 100 µM | > 100 µM | > 100 µM | > 100 µM | > 100 µM | > 100 µM | > 100 µM | > 100 µM | > 100 µM | > 100 µM | > 100 µM | > 100 µM | > 100 µM | > 100 µM |
| O=C(Nc1cccc2cccnc12)c1ccc(N2C(=O)[C@@H]3[C@H](C2=O)[C@@H]2C=C[C@H]3C2)cc1 | 14.5 µM | > 93.2 µM | 26.2 µM | > 100 µM | 37.6 µM | > 100 µM | 36.7 µM | > 100 µM | 31.8 µM | > 100 µM | 22.1 µM | > 66.6 µM | 17.6 µM | 55.9 µM | > 100 µM | 27 µM | 80.1 µM | 30.5 µM | > 100 µM | 81.2 µM |
| Cc1[nH]nc2c1N=C(c1ccccc1F)c1cc(C#N)ccc1N2 | 0.146 µM | 1.08 µM | – | – | 0.134 µM | 5.34 µM | 0.899 µM | 8.85 µM | 0.285 µM | 16.3 µM | 6.25 µM | > 25 µM | 4.72 µM | 7.12 µM | 18.8 µM | 2.39 µM | 8.81 µM | 9.71 µM | > 25 µM | > 25 µM |
| COc1ccc(NC(=O)Nc2ccc(Nc3nc(C)cc(Nc4ccc(C)cc4)n3)cc2)cc1 | 7.29 µM | 18.8 µM | – | – | 1.94 µM | 3.62 µM | 1.58 µM | 3.05 µM | 1.79 µM | 3.35 µM | 0.257 µM | 0.75 µM | 1.33 µM | 1.72 µM | 3.22 µM | 1.85 µM | 3.57 µM | 1.89 µM | 3.69 µM | 3.75 µM |
| O=C(O)C(Br)C(Br)c1ccccc1[N+](=O)[O-] (stereo not given) | – | > 100 µM | – | > 100 µM | – | > 100 µM | – | > 100 µM | – | > 100 µM | – | – | – | – | > 100 µM | – | > 100 µM | – | > 100 µM | > 100 µM |
